Data reported in patent US9919000B2, “Altering cancer cellular functions through proton mopping” (priority 2013, dated 2018).

Columns and labels:
[1] = test system: mouse 4T1 breast tumor; assay: In vivo syngeneic mouse 4T1 breast tumor study; set-up: species or system Balb/c mice
Source text: The Purpose: to assess the anti-tumor activity of the existing compound, C12H25NO8, PEGylated amine functionalized glycoside, 2-[2(2-Aminoethoxy)ethoxy]ethyl a-D-mannopyranoside, on a model of mouse 4T1 breast tumor in Balb/C mice.
Animal and Facility: healthy female Balb/c (5-6 weeks old), purchased from Harlan Laboratories, were allowed to acclimate for 3 days in a specific pathogen free animal facility. Animal housing, handling and procedures were followed according to the protocols and guidelines approved by the lab's Institutional Animal Care and Use Committee (IACUC).
In Vivo Syngeneic Tumor Study Design: Murine 4T1 breast tumor cells were kept in RPMI-1640 medium containing 10% FBS and 1% Pen/Strep. On the day of inoculation, the cells were harvested according to standard protocol (Beth Pulaski) and re-suspended in PBS at the cell concentration of 2.5×10^5 cells/ml. Each animal was injected with 0.1 ml of the cell solution into the right flank of Balb/c mice following the SOP. On the 8th day post-inoculation, all tumor volumes were measured and the animals were divided into two groups, control and treated.
Study Design: to deliver a predetermined dose of the compound intravenously for 5 days.
Study Objective: to observe clinically the reduction of the size of the tumors using calipers (our “biomarker”).[FIG. 2]
(§1) Treatment: the tested compound was prepared right before dosing on day 8 after 4T1 inoculation. Each mouse received a predetermined dose of either the compound or saline intravenously daily for 5 consecutive days. The mice tumor volumes and mice body weights were monitored every other day along with other general behavior factors.
(§2) Endpoints: animal was euthanized if one of the following conditions was identified: • its neoplasm reached the predetermined 1000 cubic mms • the animal became moribund • body weight lost more than 20% of its original weight

[2] = Tolerability in the 4T1 tumor study (body weight, general behavior); format: in vivo; conditions: intravenous daily dosing for 5 consecutive days, tumor-bearing Balb/c mice
Description: as §1, §2

## NCCOCCOCCO[C@H]1OC(CO)[C@@H](O)[C@H](O)C1O (stereo partly drawn) [compound 5, 1-(2-(2-(2-Aminoethoxy)ethoxy)ethoxy-D-mannopyranoside]
[1]; by day 10, intravenously daily for 5 consecutive days from day 8 after 4T1 inoculation, tumor size by calipers
  maximal tumor growth inhibition index (TIC ratio): around 48%
[1]; during treatment (day 8 to day 12), control tumors doubled every 2-3 days
  4T1 tumor growth in the treated group: grew slowly
[1]; syngeneic mouse breast cancer model, FIG. 1
  tumor reduction: 48%
[2]
  toxic effects / tolerability: no toxic effects were observed
